{
  "source": "patent US20240269091A1",
  "about": "“IDEBENONE IN THE TREATMENT OF DRUG RESISTANT EPILEPSY” (Katholieke Universiteit Leuven, priority 2021, published 2024)",
  "key": {"[1]": {"settings": "mouse, in vivo; cited from earlier work"}, "human recombinant PHGDH": {"molecular_target": "T1, human recombinant PHGDH (Homo sapiens, UniProt O43175)", "T1 sequence (O43175 1-533)": "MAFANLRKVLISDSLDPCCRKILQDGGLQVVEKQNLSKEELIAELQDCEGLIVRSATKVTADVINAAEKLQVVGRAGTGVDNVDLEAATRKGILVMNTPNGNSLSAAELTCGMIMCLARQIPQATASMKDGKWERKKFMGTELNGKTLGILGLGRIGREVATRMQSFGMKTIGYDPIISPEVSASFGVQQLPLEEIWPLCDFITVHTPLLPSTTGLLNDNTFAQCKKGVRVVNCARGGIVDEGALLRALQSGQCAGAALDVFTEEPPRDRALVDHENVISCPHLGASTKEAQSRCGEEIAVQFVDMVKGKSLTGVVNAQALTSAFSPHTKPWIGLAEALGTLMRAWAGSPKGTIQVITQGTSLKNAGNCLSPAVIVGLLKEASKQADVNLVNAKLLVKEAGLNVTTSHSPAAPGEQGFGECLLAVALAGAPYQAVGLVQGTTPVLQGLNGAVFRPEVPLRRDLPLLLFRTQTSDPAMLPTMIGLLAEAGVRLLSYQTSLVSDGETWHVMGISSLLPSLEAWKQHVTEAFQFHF", "assay": "PHGDH enzyme activity, colorimetric PHGDH activity kit (absorbance at 450 nm, NADH generated)", "procedure": "As a readout, absorbance at 450 nm, indicative for the amount of NADH generated, was measured over time."}, "[2]": {"tested_on": "Arginase 1 expression (microglia/macrophage M2 marker)", "assay": "Temporal lobe epilepsy model (SSSE), Arginase-1 expression by real-time quantitative PCR of brain tissue", "assay_type": "in vivo, C57bl/6 mice", "settings": "100 mg/kg twice daily i.p. for one week, vs vehicle control; p=0.017; two-way ANOVA (FIG. 5)", "description": "The present example investigates whether Idebenone has the potential to modulate neuroinflammation from an M1 to M2 phenotype. […] (control animals received vehicle injections for one week). Idebenone was suspended in 5% dimethyl sulfoxide and 20% Kolliphor RH40 in 0.01M PBS. Expression of the major marker for M2 polarization, Arginase-1, was assessed via real-time quantitative PCR upon brain tissue processing. Two-way ANOVA analysis was performed to evaluate the effect of two factors including the treatment and the SSSE [self-sustained Electrical Status Epilepticus], and any interaction of the two factors."}, "[3]": {"tested_on": "pilocarpine-induced seizures", "settings": "rats, preventive treatment 3 days prior to pilocarpine injection; Ahmed (2014); cited from earlier work"}, "[4]": {"tested_on": "EKP-induced epileptiform activity in zebrafish", "assay": "Zebrafish EKP-induced seizure model, LFP recordings", "assay_type": "in vivo", "description": "FIG. 3. Representative LFP recordings of zebrafish in the absence (VHC) or presence of EKP, treated with 8.5-4.3 μM idebenone or untreated (VHC), in the presence or absence of a specific PHGDH inhibitor CBR-5884 [Mullarky et al. (2016) Proc Natl Acad Sci USA 113, 1778-1783].\nFIG. 4: Normalized PSD per larvae for the different conditions. Number of epileptic events within a 10-min recording (mean±SEM.). Number of recordings analysed were: VHC (n=9), EKP (n=15), 8.5 μM idebenone (Ide) (n=10), 4.3 μM idebenone (n=10), 4.3 μM idebenone+inhibitor (n=9). PHGDH-inhibitor CBR-5884 was used. Statistical differences as compared to the EKP-only treated larvae were assessed by the following statistical analysis: one-way ANOVA with Dunnett's multiple comparison test. A statistical difference is indicated by: **p<0.01, ***p<0.001 and ****p<0.0001.ns=not significant.\nCommon to all epilepsies, seizures occur due to an abnormal, excessive and synchronous activity of large neuronal populations. As such, seizures can be observed on electrophysiological recordings such as invasive or non-invasive local field potential (LFP) measurements, being a counterpart of electroencephalogram (EEG) performed in humans. Indeed, these techniques serve as a gold standard for epilepsy diagnosis. […]"}, "[5]": {"tested_on": "EKP-induced seizures in zebrafish larvae", "assay": "Zebrafish EKP-induced seizure model, locomotor activity tracking", "assay_type": "in vivo", "settings": "8.5 μM, 2 h pre-incubation, 300 μM EKP, 7 dpf larvae, 30 min recording; ****p<0.0001", "description": "FIG. 2. Activity profile of 8.5 μM idebenone after 300 μM EKP exposure. Locomotor activity was quantified using ZebraLab™ software (Viewpoint, Lyon, France) and expressed in mean “actinteg” units per 5-min+/−SEM during a 30 min recording interval as indicated above. Statistical analysis: one-way ANOVA with Dunnett's multiple comparison test. A statistical difference is indicated by: ****p<0.0001. For each condition n=10 larvae were used and the experiment was performed three times (n total=30 per condition).\nThe EKP-induced epilepsy zebrafish model is a suitable model to investigate drug resistant epilepsy. Ethyl ketopentenoate (EKP) is a lipid-permeable GAD-inhibitor that results in […] and drug resistant seizures in zebrafish [Zhang et al. (2017) Sci Rep. 7, 7195]. […]\nLarvae (7dpf) in 100 μl VHC were arrayed individually in a 96-well plate (tissue culture plate, at bottom, Falcon, USA) and kept in the light at 28° C. […] The plates were placed in an automated video tracking device (ZebraBox™ apparatus; Viewpoint, Lyon, France) and the locomotor behaviour of the larvae was monitored for […] in the dark at 28° C. Locomotor activity was quantified using ZebraLab™ software (Viewpoint, Lyon, France) and expressed in “actinteg” units per 5-min interval. […] The actinteg value is defined as the sum of all image pixel changes detected during the time window."}, "[6]": {"tested_on": "EKP-induced epileptiform activity in zebrafish", "settings": "1 μM; Zhang et al. (2017); cited from earlier work"}},
  "note": "“Also recorded” adds a separate entry of the source.",
  "data": [
    {"compound": "COC1=C(OC)C(=O)C(CCCCCCCCCCO)=C(C)C1=O", "note": "[Idebenone, 6-(10-hydroxydecyl)-2,3-dimethoxy-5-methyl-1,4-benzoquinone]", "values": [
      {"measurement": "LD50", "setting": "[1]", "result": "exceeds 10,000 mg/kg"},
      {"measurement": "effect on the oxido-reduction reaction toward NADH generation (compound itself)", "setting": "human recombinant PHGDH", "result": "does not affect the oxido-reduction reaction toward NADH generation"},
      {"measurement": "PHGDH enzyme activity", "setting": "human recombinant PHGDH; 25 µM idebenone, over time, DMSO 0.5% (FIG. 1)", "result": "induces increased enzyme activity of PHGDH"},
      {"measurement": "expression of M2 marker Arginase 1", "setting": "[2]", "result": "increases the expression; also recorded: significant increase"},
      {"measurement": "neuroprotection in pilocarpine-induced seizure model", "setting": "[3]", "result": "provides neuroprotection"},
      {"measurement": "EKP-induced epileptiform activity, LFP recordings", "setting": "[4]; 8.5-4.3 μM, 10-min recording", "result": "significantly reduced EKP-induced epileptiform activity"},
      {"measurement": "EKP-induced seizures assessed as locomotor movement (actinteg units per 5-min)", "setting": "[5]", "result": "significantly reduced EKP-induced seizures"}
    ]},
    {"compound": "N#Cc1ccccc1-c1cc(-c2ccccn2)cn(-c2ccccc2)c1=O", "note": "[Perampanel]", "values": [
      {"measurement": "anti-seizure activity in the EKP model", "setting": "[6]", "result": "anti-seizure activity"}
    ]},
    {"compound": "CBR-5884", "values": [
      {"measurement": "blocking of idebenone-induced increased PHGDH activity", "setting": "human recombinant PHGDH; co-administration with idebenone", "result": "can be blocked by co-administration"},
      {"measurement": "blocking of the anti-seizure activity of idebenone", "setting": "[4]; co-administration with idebenone (4.3 μM)", "result": "could be blocked by co-administration"}
    ]}
  ]
}
